Target: T1, human GHS-R 1a (Homo sapiens, UniProt Q92847)
T1 construct: expressed in transfected cells; host or cells: LLC PK-1 porcine renal epithelial cells (ECACC No. 86121112), isolated plasma membranes
Assay: GHS-R 1a receptor-ligand binding assay (membrane preparations from transfected LLC PK-1 cells)
Conditions: displacement of 125I-His9-ghrelin (60 pM); membranes of LLC PK-1 cells transfected with human GHS-R 1a; mean of at least two independent experiments in triplicates
Method: (J. Med. […] Med. Chem. 2003, 46: 1191-1203), were incubated in homogenization buffer HB [50 mM Tris (pH 7.3), 5 mM MgCl2, 2.5 mM EDTA, and 30 μg/mL bacitracin (Sigma)] for 60 min at 25° C. (steady-state conditions) with 60 pM ^125I-[…]-ghrelin (Amersham) in the presence or absence of competing compounds (compounds of the invention). […] Nonspecific binding was defined using an excess (10^-6 M) of ghrelin. The binding reaction was stopped by addition of 4 mL of ice-cold HB followed by rapid filtration over Whatman GP/C filters presoaked with 0.5% polyethyleneimine to prevent excessive binding of radioligand to the filters. […] IC50 values given are the mean of at least two independent experiments performed in triplicates.

T1 sequence (Q92847 whole entry): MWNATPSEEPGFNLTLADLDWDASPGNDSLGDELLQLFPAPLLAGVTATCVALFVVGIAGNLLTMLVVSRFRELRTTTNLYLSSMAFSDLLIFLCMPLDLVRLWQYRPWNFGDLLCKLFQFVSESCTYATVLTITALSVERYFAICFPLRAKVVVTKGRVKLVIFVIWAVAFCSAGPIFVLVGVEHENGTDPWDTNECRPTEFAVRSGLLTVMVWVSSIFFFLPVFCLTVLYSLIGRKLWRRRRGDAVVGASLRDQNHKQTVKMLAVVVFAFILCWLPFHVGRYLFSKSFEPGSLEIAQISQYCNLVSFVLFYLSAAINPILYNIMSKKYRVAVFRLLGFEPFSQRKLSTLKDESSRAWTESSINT

Compound	IC50
COc1ccc(Cn2c(CCc3ccccc3)nnc2[C@@H](Cc2c[nH]c3ccccc23)NC(=O)CN)c(OC)c1 [compound 75, (R)—N-(1-(4-(2,4-dimethoxybenzyl)-5-phenethyl-4H-1,2,4-triazol-3-yl)-2-(1H-indol-3-yl)ethyl)-2-aminoacetamide]	140 nM
COc1ccc(Cn2c(CCc3ccccc3)nnc2[C@@H](Cc2c[nH]c3ccccc23)NC(=O)Cc2ccccn2)cc1 [compound 51, (R)—N-(1-(4-(4-methoxybenzyl)-5-phenethyl-4H-1,2,4-triazol-3-yl)-2-(1H-indol-3-yl)ethyl)-2-(pyridin-2-yl)acetamide]	3 nM
CC(C)(N)C(=O)N[C@H](Cc1c[nH]c2ccccc12)c1nnc(CCc2c[nH]c3ccccc23)n1Cc1ccccc1 [compound 8, (R)—N-(1-(5-(2-(1H-indol-3-yl)ethyl)-4-benzyl-4H-1,2,4-triazol-3-yl)-2-(1H-indol-3-yl)ethyl)-2-amino-2-methylpropanamide]	18 nM
COc1ccc(Cn2c(CCc3ccccc3)nnc2[C@@H](Cc2c[nH]c3ccccc23)NC(=O)C2CNCCN2)cc1 (stereo partly shown) [compound 78]	54 nM
Cc1ccc(Cn2c(CCc3c[nH]c4ccccc34)nnc2[C@@H](Cc2c[nH]c3ccccc23)NC(=O)C(C)(C)N)cc1 [compound 34, (R)—N-(1-(5-(2-(1H-indol-3-yl)ethyl)-4-(4-methylbenzyl)-4H-1,2,4-triazol-3-yl)-2-(1H-indol-3-yl)ethyl)-2-amino-2-methylpropanamide]	28 nM
COc1ccc(Cn2c(CCc3ccccc3)nnc2[C@@H](Cc2c[nH]c3ccccc23)NC(=O)[C@H](C)N)cc1 [compound 57, (S)—N—((R)-1-(4-(4-methoxybenzyl)-5-phenethyl-4H-1,2,4-triazol-3-yl)-2-(1H-indol-3-yl)ethyl)-2-aminopropanamide]	140 nM
COc1cccc(Cn2c(CCc3ccccc3)nnc2[C@@H](Cc2c[nH]c3ccccc23)NC(=O)C(C)(C)N)c1 [compound 19, (R)—N-(1-(4-(3-methoxybenzyl)-5-phenethyl-4H-1,2,4-triazol-3-yl)-2-(1H-indol-3-yl)ethyl)-2-amino-2-methylpropanamide]	78 nM
COc1ccc(Cn2c(CCc3c[nH]c4ccccc34)nnc2[C@@H](Cc2c[nH]c3ccccc23)NC(=O)c2ccccn2)c(OC)c1 [compound 73, (R)—N-(1-(5-(2-(1H-indol-3-yl)ethyl)-4-(2,4-dimethoxybenzyl)-4H-1,2,4-triazol-3-yl)-2-(1H-indol-3-yl)ethyl)picolinamide]	1.8 nM
COc1ccc(Cn2c(CCCc3c[nH]c4ccccc34)nnc2[C@@H](Cc2c[nH]c3ccccc23)NC(=O)C(C)(C)N)cc1 [compound 23, (R)—N-(1-(5-(3-(1H-indol-3-yl)propyl)-4-(4-methoxybenzyl)-4H-1,2,4-triazol-3-yl)-2-(1H-indol-3-yl)ethyl)-2-amino-2-methylpropanamide]	37 nM
O=C(Cc1ccccn1)N[C@H](Cc1c[nH]c2ccccc12)c1nnc(CCc2c[nH]c3ccccc23)n1Cc1ccccc1 [compound 60, (R)—N-(1-(5-(2-(1H-indol-3-yl)ethyl)-4-benzyl-4H-1,2,4-triazol-3-yl)-2-(1H-indol-3-yl)ethyl)-2-(pyridin-2-yl)acetamide]	61 nM
COc1cc(Cn2c(Cc3ccccc3)nnc2[C@@H](Cc2c[nH]c3ccccc23)NC(=O)C(C)(C)N)cc(OC)c1 [compound 108, (R)—N-(1-(4-(3,5-dimethoxybenzyl)-5-benzyl-4H-1,2,4-triazol-3-yl)-2-(1H-indol-3-yl)ethyl)-2-amino-2-methylpropanamide]	250 nM
O=C(N[C@H](Cc1c[nH]c2ccccc12)c1nnc(CCc2ccccc2)n1Cc1cccs1)C1CCNCC1 [compound 94, (R)—N-(2-(1H-indol-3-yl)-1-(5-phenethyl-4-(thiophen-2-ylmethyl)-4H-1,2,4-triazol-3-yl)ethyl)piperidine-4-carboxamide]	255 nM
CC(C)(N)C(=O)N[C@H](Cc1c[nH]c2ccccc12)c1nnc(Cc2ccccc2)n1Cc1cccc2ccccc12 [compound 4, (R)—N-(1-(5-benzyl-4-(naphthalen-1-ylmethyl)-4H-1,2,4-triazol-3-yl)-2-(1H-indol-3-yl)ethyl)-2-amino-2-methylpropanamide]	220 nM
COc1ccc(Cn2c(CCc3ccccc3)nnc2[C@@H](Cc2c[nH]c3ccccc23)NC(=O)c2ccccn2)cc1 [compound 79, (R)—N-(1-(4-(4-methoxybenzyl)-5-phenethyl-4H-1,2,4-triazol-3-yl)-2-(1H-indol-3-yl)ethyl)picolinamide]	0.7 nM
CCc1ccc(Cn2c(CCc3ccccc3)nnc2[C@@H](Cc2c[nH]c3ccccc23)NC(=O)[C@H]2CCCNC2)cc1 [compound 155, (3S)—N—((R)-1-(4-(4-ethylbenzyl)-5-phenethyl-4H-1,2,4-triazol-3-yl)-2-(1H-indol-3-yl)ethyl)piperidine-3-carboxamide]	188 nM
CC(C)(N)C(=O)N[C@H](Cc1c[nH]c2ccccc12)c1nnc(CCc2c[nH]c3ccccc23)n1-c1ccccc1 [compound 175, N—((R)-1-(5-(2-(1H-indol-3-yl)ethyl)-4-phenyl-4H-1,2,4-triazol-3-yl)-2-(1H-indol-3-yl)ethyl)-2-amino-2-methylpropanamide]	140 nM
CCc1ccc(Cn2c(CCc3ccccc3)nnc2[C@@H](Cc2c[nH]c3ccccc23)NC(=O)Cc2ccccn2)cc1 [compound 82, (R)—N-(1-(4-(4-ethylbenzyl)-5-phenethyl-4H-1,2,4-triazol-3-yl)-2-(1H-indol-3-yl)ethyl)-2-(pyridin-2-yl)acetamide]	51 nM
CC(C)(N)C(=O)N[C@H](Cc1c[nH]c2ccccc12)c1nnc(CCc2ccccc2)n1Cc1cccc2ccccc12 [compound 27, (R)—N-(2-(1H-indol-3-yl)-1-(4-(naphthalen-1-ylmethyl)-5-phenethyl-4H-1,2,4-triazol-3-yl)ethyl)-2-amino-2-methylpropanamide]	126 nM
COc1ccc(Cn2c(CCc3ccccc3)nnc2[C@@H](Cc2c[nH]c3ccccc23)NC(=O)C(C)(C)N)c(OC)c1 [compound 179, N—((R)-1-(4-(2,4-dimethoxybenzyl)-5-phenethyl-4H-1,2,4-triazol-3-yl)-2-(1H-indol-3-yl)ethyl)-2-amino-2-methylpropanamide]	62 nM
CCc1ccc(Cn2c(CCc3ccccc3)nnc2[C@@H](Cc2c[nH]c3ccccc23)NC(=O)c2ccccn2)cc1 [compound 138, N—((R)-1-(4-(4-ethylbenzyl)-5-phenethyl-4H-1,2,4-triazol-3-yl)-2-(1H-indol-3-yl)ethyl)picolinamide]	44 nM
COc1ccc(Cn2c(CCc3c[nH]c4ccccc34)nnc2[C@@H](Cc2c[nH]c3ccccc23)NC(=O)C2CCCCC2N)c(OC)c1 (stereo partly drawn) [compound 86, (R)—N-(1-(5-(2-(1H-indol-3-yl)ethyl)-4-(2,4-dimethoxybenzyl)-4H-1,2,4-triazol-3-yl)-2-(1H-indol-3-yl)ethyl)-2-cis-aminocyclohexanecarboxamide]	143 nM
CC(C)(N)C(=O)N[C@H](Cc1c[nH]c2ccccc12)c1nnc(CCc2c[nH]c3ccccc23)n1Cc1ccc(Cl)c(Cl)c1 [compound 28, (R)—N-(1-(5-(2-(1H-indol-3-yl)ethyl)-4-(3,4-dichlorobenzyl)-4H-1,2,4-triazol-3-yl)-2-(1H-indol-3-yl)ethyl)-2-amino-2-methylpropanamide]	79 nM
COc1ccc(-n2c(CCc3ccccc3)nnc2[C@@H](Cc2c[nH]c3ccccc23)NC(=O)c2ccccn2)c(OC)c1 [compound 159, N—((R)-2-(1H-indol-3-yl)-1-(4-(2,4-dimethoxyphenyl)-5-phenethyl-4H-1,2,4-triazol-3-yl)ethyl)picolinamide]	33 nM
COc1ccc(Cn2c(CCc3c[nH]c4ccccc34)nnc2[C@@H](Cc2c[nH]c3ccccc23)NC(=O)[C@@H]2CCCN2)c(OC)c1 [compound 70, (S)—N—((R)-1-(5-(2-(1H-indol-3-yl)ethyl)-4-(2,4-dimethoxybenzyl)-4H-1,2,4-triazol-3-yl)-2-(1H-indol-3-yl)ethyl)pyrrolidine-2-carboxamide]	6 nM
COc1cccc(Cn2c(CCc3c[nH]c4ccccc34)nnc2[C@@H](Cc2c[nH]c3ccccc23)NC(=O)C(C)(C)N)c1 [compound 6, (R)—N-(1-(5-(2-(1H-indol-3-yl)ethyl)-4-(3-methoxybenzyl)-4H-1,2,4-triazol-3-yl)-2-(1H-indol-3-yl)ethyl)-2-amino-2-methylpropanamide]	18 nM
CC(C)(C)Sc1nnc([C@@H](COCc2ccccc2)NC(=O)C(C)(C)N)n1Cc1ccccc1 [Example 8 from WO 00/54729 A2, (S)—N-(1-(4-benzyl-5-(tert-butylthio)-1,2,4-triazol-3-yl)-2-(benzyloxy)ethyl)-2-amino-2-methylpropanamide, reference compound]	~20000 nM
CC(C)(N)C(=O)N[C@H](Cc1c[nH]c2ccccc12)c1nnc(CCc2c[nH]c3ccccc23)n1Cc1cccc2ccccc12 [compound 5, (R)—N-(1-(5-(2-(1H-indol-3-yl)ethyl)-4-(naphthalen-1-ylmethyl)-4H-1,2,4-triazol-3-yl)-2-(1H-indol-3-yl)ethyl)-2-amino-2-methylpropanamide]	125 nM
COc1ccc(Cn2c(CCc3ccccc3)nnc2[C@@H](Cc2c[nH]c3ccccc23)NC(=O)c2ccccc2)cc1 [compound 176, N—((R)-1-(4-(4-methoxybenzyl)-5-phenethyl-4H-1,2,4-triazol-3-yl)-2-(1H-indol-3-yl)ethyl)benzamide]	80 nM
